# From PubChem BioAssay AID220 (DTP/NCI, 2004)
# Values joined by “and” are separate entries in the source; they are usually repeats but may differ in a detail not shown here. Equal values may be shown once. Results filed as inconclusive are left out.
# Tested on: CD8F1 mice, subcutaneous mammary adenocarcinoma, T/C%
# Experiment: NCI In Vivo Anticancer Drug Screen. Data for tumor model Mammary Adenocarcinoma CD8F1 (subcutaneous) in CD8F1
# Conditions: higher = larger tumour
# How it was run: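 Tumor-bearing mice, transplantable model; readout survival or tumor size; value = treated (T) / vehicle control (C).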
# [1] = endpoint: median tumor weight (est.), dose: 0.5 mg/kg/injection, schedule: Q07DX005 (ip), vehicle: saline
# [2] = endpoint: median tumor weight (est.), dose: 1.0 mg/kg/injection, schedule: Q07DX005 (ip), vehicle: saline
# [3] = endpoint: median tumor weight (est.), dose: 2.0 mg/kg/injection, schedule: Q07DX005 (ip), vehicle: saline
# [4] = endpoint: median tumor weight (est.), dose: 4.0 mg/kg/injection, schedule: Q07DX005 (ip), vehicle: saline
# [5] = endpoint: median tumor weight (est.), dose: 25.0 mg/kg/injection, schedule: Q07DX005 (ip), vehicle: saline
# [6] = endpoint: median tumor weight (est.), dose: 50.0 mg/kg/injection, schedule: Q07DX005 (ip), vehicle: saline
# [7] = endpoint: median tumor weight (est.), dose: 100.0 mg/kg/injection, schedule: Q07DX005 (ip), vehicle: saline
# [8] = endpoint: median tumor weight (est.), dose: 200.0 mg/kg/injection, schedule: Q07DX005 (ip), vehicle: saline
smiles,measurement,setting,value
COc1cccc2c1C(=O)c1c(O)c3c(c(O)c1C2=O)C[C@@](O)(C(=O)COC(=O)c1cccnc1)C[C@@H]3OC1CC(N)C(O)C(C)O1 (stereo partly drawn),T/C,"endpoint: mean tumor weight, dose: 0.5 mg/kg/injection, schedule: Q07DX006 (ip), vehicle: saline",114 % of control
same,T/C,"endpoint: mean tumor weight, dose: 1.0 mg/kg/injection, schedule: Q07DX006 (ip), vehicle: saline",53 % of control
same,T/C,"endpoint: mean tumor weight, dose: 2.0 mg/kg/injection, schedule: Q07DX006 (ip), vehicle: saline",25 % of control
same,T/C,[1],121 % of control
same,T/C,[2],92 % of control
same,T/C,[3],72 % of control and 75 % of control
same,T/C,[4],90 % of control
CCOC(=O)c1ccc(NC(=O)Nc2nccs2)cc1,T/C,"endpoint: median tumor weight (est.), dose: 12.5 mg/kg/injection, schedule: Q07DX005 (ip), vehicle: saline with Tween-80",150 % of control
same,T/C,"endpoint: median tumor weight (est.), dose: 25.0 mg/kg/injection, schedule: Q07DX005 (ip), vehicle: saline with Tween-80",46 % of control
same,T/C,"endpoint: median tumor weight (est.), dose: 50.0 mg/kg/injection, schedule: Q07DX005 (ip), vehicle: saline with Tween-80",60 % of control
same,T/C,"endpoint: median tumor weight (est.), dose: 100.0 mg/kg/injection, schedule: Q07DX005 (ip), vehicle: saline with Tween-80",96 % of control
same,T/C,"endpoint: median tumor weight (est.), dose: 200.0 mg/kg/injection, schedule: Q07DX005 (ip), vehicle: saline with Tween-80",49 % of control
same,T/C,"endpoint: median tumor weight (est.), dose: 400.0 mg/kg/injection, schedule: Q07DX005 (ip), vehicle: saline with Tween-80",43 % of control
S=P(N1CC1)(N1CC1)N1CC1,T/C,"endpoint: mean tumor weight, dose: 1.0 mg/kg/injection, schedule: Q01DX009 (ip), vehicle: saline",45 % of control
same,T/C,"endpoint: mean tumor weight, dose: 2.0 mg/kg/injection, schedule: Q01DX009 (ip), vehicle: saline",7 % of control
same,T/C,"endpoint: mean tumor weight, dose: 4.0 mg/kg/injection, schedule: Q07DX005 (ip), vehicle: saline",354 % of control
same,T/C,"endpoint: mean tumor weight, dose: 4.0 mg/kg/injection, schedule: Q07DX006 (ip), vehicle: saline",20 % of control
same,T/C,"endpoint: mean tumor weight, dose: 4.0 mg/kg/injection, schedule: Q07DX007 (ip), vehicle: saline",1 % of control
same,T/C,"endpoint: mean tumor weight, dose: 8.0 mg/kg/injection, schedule: Q07DX005 (ip), vehicle: saline",597 % of control
same,T/C,"endpoint: mean tumor weight, dose: 8.0 mg/kg/injection, schedule: Q07DX006 (ip), vehicle: saline",3 % of control
same,T/C,"endpoint: mean tumor weight, dose: 8.0 mg/kg/injection, schedule: Q07DX007 (ip), vehicle: saline",6 % of control
same,T/C,"endpoint: mean tumor weight, dose: 16.0 mg/kg/injection, schedule: Q07DX005 (ip), vehicle: saline",61 % of control
same,T/C,[1],96 % of control
same,T/C,[2],157 % of control
same,T/C,[3],159 % of control
same,T/C,[4],42 % of control
same,T/C,"endpoint: median tumor weight (est.), dose: 8.0 mg/kg/injection, schedule: Q07DX005 (ip), vehicle: saline",15 % of control
CCN(CC)CCNc1ccc(C)c2sc3ccccc3c(=O)c12,T/C,"endpoint: median tumor weight (est.), dose: 12.5 mg/kg/injection, schedule: Q07DX005 (ip), vehicle: saline",156 % of control
same,T/C,[5],198 % of control
same,T/C,[6],166 % of control
same,T/C,[7],76 % of control
same,T/C,[8],42 % of control
COc1cc2c[n+](C)c3c(c2cc1OC)Cc1cc2c(cc1-3)OCO2,T/C,"endpoint: median tumor weight change, dose: 62.5 mg/kg/injection, schedule: Q01DX001 (ip), vehicle: suspension in saline",92 % of control
same,T/C,"endpoint: median tumor weight change, dose: 125.0 mg/kg/injection, schedule: Q01DX001 (ip), vehicle: suspension in saline",105 % of control
Oc1c(Cl)cc(Cl)cc1C1N2CCCCC2C2c3cccn3-c3ccccc3N21 (stereo not drawn),T/C,"endpoint: median tumor weight change, dose: 125.0 mg/kg/injection, schedule: Q01DX001 (ip), vehicle: saline with Tween-80",69 % of control
same,T/C,"endpoint: median tumor weight change, dose: 250.0 mg/kg/injection, schedule: Q01DX001 (ip), vehicle: saline with Tween-80",85 % of control
same,T/C,"endpoint: median tumor weight change, dose: 500.0 mg/kg/injection, schedule: Q01DX001 (ip), vehicle: saline with Tween-80",58 % of control
same,T/C,"endpoint: median tumor weight change, dose: 1000.0 mg/kg/injection, schedule: Q01DX001 (ip), vehicle: saline with Tween-80",68 % of control
same,T/C,"endpoint: median tumor weight change, dose: 2000.0 mg/kg/injection, schedule: Q01DX001 (ip), vehicle: saline with Tween-80",79 % of control
CN1CCc2c(c3ccccc3c3ccccc23)C1,T/C,"endpoint: median tumor weight change, dose: 12.5 mg/kg/injection, schedule: Q01DX001 (ip), vehicle: Klucel (hydroxypropylcellulose) (HPC)",57 % of control
same,T/C,"endpoint: median tumor weight change, dose: 25.0 mg/kg/injection, schedule: Q01DX001 (ip), vehicle: Klucel (hydroxypropylcellulose) (HPC)",65 % of control
same,T/C,"endpoint: median tumor weight change, dose: 50.0 mg/kg/injection, schedule: Q01DX001 (ip), vehicle: Klucel (hydroxypropylcellulose) (HPC)",49 % of control
same,T/C,"endpoint: median tumor weight change, dose: 62.5 mg/kg/injection, schedule: Q01DX001 (ip), vehicle: Klucel (hydroxypropylcellulose) (HPC)",74 % of control
same,T/C,"endpoint: median tumor weight change, dose: 100.0 mg/kg/injection, schedule: Q01DX001 (ip), vehicle: Klucel (hydroxypropylcellulose) (HPC)",27 % of control
same,T/C,"endpoint: median tumor weight change, dose: 125.0 mg/kg/injection, schedule: Q01DX001 (ip), vehicle: Klucel (hydroxypropylcellulose) (HPC)",56 % of control
CC(C)[NH-].CC(C)[NH-].O.O.[Cl][Pt+2][Cl],T/C,"endpoint: median tumor weight (est.), dose: 6.25 mg/kg/injection, schedule: Q07DX005 (ip), vehicle: dextrose",121 % of control
same,T/C,"endpoint: median tumor weight (est.), dose: 12.5 mg/kg/injection, schedule: Q07DX005 (ip), vehicle: dextrose",121 % of control
same,T/C,"endpoint: median tumor weight (est.), dose: 25.0 mg/kg/injection, schedule: Q07DX005 (ip), vehicle: dextrose",110 % of control
same,T/C,"endpoint: median tumor weight (est.), dose: 50.0 mg/kg/injection, schedule: Q07DX005 (ip), vehicle: dextrose",8 % of control
N#CCCN(C(=S)Nc1cccc(C(F)(F)F)c1)C1CCCCC1,T/C,"endpoint: median tumor weight (est.), dose: 25.0 mg/kg/injection, schedule: Q07DX005 (ip), vehicle: Klucel (hydroxypropylcellulose) (HPC)",66 % of control
same,T/C,"endpoint: median tumor weight (est.), dose: 50.0 mg/kg/injection, schedule: Q07DX005 (ip), vehicle: Klucel (hydroxypropylcellulose) (HPC)",116 % of control
same,T/C,"endpoint: median tumor weight (est.), dose: 100.0 mg/kg/injection, schedule: Q07DX005 (ip), vehicle: Klucel (hydroxypropylcellulose) (HPC)",75 % of control
same,T/C,"endpoint: median tumor weight (est.), dose: 200.0 mg/kg/injection, schedule: Q07DX005 (ip), vehicle: Klucel (hydroxypropylcellulose) (HPC)",60 % of control
same,T/C,"endpoint: median tumor weight (est.), dose: 400.0 mg/kg/injection, schedule: Q07DX005 (ip), vehicle: Klucel (hydroxypropylcellulose) (HPC)",38 % of control
same,T/C,"endpoint: median tumor weight (est.), dose: 800.0 mg/kg/injection, schedule: Q07DX005 (ip), vehicle: Klucel (hydroxypropylcellulose) (HPC)",60 % of control
Nc1ccc(S(=O)(=O)Nc2cnc3c(Cl)cccc3n2)cc1,T/C,"endpoint: median tumor weight change, dose: 125.0 mg/kg/injection, schedule: Q01DX001 (ip), vehicle: DMSO",96 % of control
same,T/C,"endpoint: median tumor weight change, dose: 500.0 mg/kg/injection, schedule: Q01DX001 (ip), vehicle: DMSO",102 % of control and 121 % of control
same,T/C,"endpoint: median tumor weight change, dose: 2000.0 mg/kg/injection, schedule: Q01DX001 (ip), vehicle: DMSO",102 % of control
O=c1cc[nH]c(=O)o1,T/C,"endpoint: mean tumor weight, dose: 5.0 mg/kg/injection, schedule: Q04DX008 (ip), vehicle: water",75 % of control
same,T/C,"endpoint: mean tumor weight, dose: 10.0 mg/kg/injection, schedule: Q04DX008 (ip), vehicle: water",109 % of control
same,T/C,"endpoint: mean tumor weight, dose: 20.0 mg/kg/injection, schedule: Q04DX008 (ip), vehicle: water",70 % of control
same,T/C,"endpoint: mean tumor weight, dose: 25.0 mg/kg/injection, schedule: Q07DX005 (ip), vehicle: saline",112 % of control
same,T/C,"endpoint: mean tumor weight, dose: 25.0 mg/kg/injection, schedule: Q07DX007 (ip), vehicle: saline",152 % of control
same,T/C,"endpoint: mean tumor weight, dose: 50.0 mg/kg/injection, schedule: Q07DX005 (ip), vehicle: saline",54 % of control
same,T/C,"endpoint: mean tumor weight, dose: 50.0 mg/kg/injection, schedule: Q07DX007 (ip), vehicle: saline",87 % of control
same,T/C,"endpoint: mean tumor weight, dose: 75.0 mg/kg/injection, schedule: Q07DX007 (ip), vehicle: saline",46 % of control
same,T/C,"endpoint: median tumor weight (est.), dose: 12.2 mg/kg/injection, schedule: Q07DX005 (ip), vehicle: saline",62 % of control
same,T/C,"endpoint: median tumor weight (est.), dose: 28.0 mg/kg/injection, schedule: Q07DX005 (ip), vehicle: saline",83 % of control
same,T/C,"endpoint: median tumor weight (est.), dose: 42.0 mg/kg/injection, schedule: Q07DX005 (ip), vehicle: saline",118 % of control
same,T/C,"endpoint: median tumor weight (est.), dose: 63.0 mg/kg/injection, schedule: Q07DX005 (ip), vehicle: saline",67 % of control
N#Cc1cn(C2OC(CO)C(O)C2O)c2ncnc(N)c12 (stereo not drawn),T/C,"endpoint: median tumor weight (est.), dose: 0.12 mg/kg/injection, schedule: Q07DX005 (ip), vehicle: saline",86 % of control
same,T/C,"endpoint: median tumor weight (est.), dose: 0.25 mg/kg/injection, schedule: Q07DX005 (ip), vehicle: saline",53 % of control
same,T/C,[1],55 % of control
same,T/C,[2],63 % of control
O=C(O)CC(NC(=O)CP(=O)(O)O)C(=O)O (stereo not drawn),T/C,[5],92 % of control
same,T/C,[6],94 % of control
same,T/C,[7],62 % of control
same,T/C,[8],56 % of control
same,T/C,"endpoint: median tumor weight (est.), dose: 400.0 mg/kg/injection, schedule: Q07DX005 (ip), vehicle: saline",9 % of control
same,T/C,"endpoint: median tumor weight change, dose: 100.0 mg/kg/injection, schedule: Q01DX001 (ip), vehicle: saline",81 % of control
same,T/C,"endpoint: median tumor weight change, dose: 200.0 mg/kg/injection, schedule: Q01DX001 (ip), vehicle: saline",92 % of control
same,T/C,"endpoint: median tumor weight change, dose: 400.0 mg/kg/injection, schedule: Q01DX001 (ip), vehicle: saline",85 % of control
same,T/C,"endpoint: median tumor weight change, dose: 800.0 mg/kg/injection, schedule: Q01DX001 (ip), vehicle: saline",66 % of control
